We go through four compounds from patent publication US20200001104A1, “SCALABLE MAGNETOMECHANICAL SCHEMES AND DEVICES FOR REMOTE CONTROL OF MECHANOSENSITIVE CELLS” (Massachusetts Institute of Technology, priority 2018, published 2020).

“Also recorded” adds a separate entry of the source. Read-outs that look alike come from different tables or passages of the source.

The test system of the experiment is dorsal root ganglion (DRG) explant cultures. The experiment can be described thus: Magnetomechanical stimulation in the presence of channel blockers, calcium imaging. Type of experiment: cell-based, rat.
Where [1] appears, read: blocker at 100 μM, MNDs plus MF.
The mark [2] stands for this setting: cells incubated with blocker, all doses, one-way ANOVA, n=6.

Consider `[Cl][Gd]([Cl])[Cl]` [Gd^3+, Gadolinium(III) (Gd^3+) chloride], for which the “Ca2+ response to magnetomechanical stimulation” value is “enhanced response; also recorded: increases Ca^2+ influx” under setting [1] and “reduced response; also recorded: nearly eliminates Ca^2+ activity” (blocker at 1000 μM (1 mM), MNDs plus MF). In addition, under “blocker at 1 mM, one-way ANOVA and Tukey's HSD, n=6”, the “fraction of cells responding to magnetomechanical stimulation” value is recorded as “significantly lower fraction”.

With `CCCCCC/C=C\CCCCCCCC(=O)O` [PA, palmitoleic acid], the “Ca2+ response to magnetomechanical stimulation” value (blocker at 30-300 μM, MNDs plus MF) is given as “failed to block; also recorded: do not affect”. Also, the “number of responders to magnetomechanical stimulation” value (shortened to “number of responders”) under setting [2] is on record as “No significant difference”.

Regarding `NC1=N[C@H](O)[C@H]2[C@H]3O[C@]4(O)O[C@@H]([C@@H](O)[C@@]2(N1)[C@@H]4O)[C@]3(O)CO` [TTX, tetrodotoxin], the “Ca2+ response to magnetomechanical stimulation” value is recorded as “failed to block; also recorded: do not affect” and the “number of responders” value is “No significant difference”.

Consider ruthenium red [RuR], for which, under “blocker at 10 μM, MNDs plus MF”, the “Ca2+ response (ΔF/F0) to magnetomechanical stimulation” value is given as “larger ΔF/F0 changes; also recorded: increases”. Further, under setting [1], the “Ca2+ response to magnetomechanical stimulation” value is listed as “returns to baseline levels”. In addition, under setting [2], the “number of responders” value is on record as “No significant difference”.
